According to patent publication US9938301B2, “Dihydropyrimido fused ring derivative as HBV inhibitor” (QILU PHARMACEUTICAL CO., LTD., priority 2014, dated 2018):
Where two headings read alike, the source gives them in different places.

Tested on: HBV DNA in HepG2.2.15 cells
Experiment: HBV in vitro dot-blot hybridization test
Format: cell-based, Hepatitis B virus
Conditions: Hepatitis B virus
Procedure, shortened: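 HepG2.2.15 cells (4×10^4/well) treated in duplicate with 6 five-fold compound dilutions (1% DMSO final), medium with compound renewed on day 5, cells harvested day 8-9. Intracellular HBV DNA quantified by dot-blot with DIG-labelled probe; % inhibition normalised to 1 μM GLS4 (100%) and DMSO (0%), EC50 fitted.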

[1] = HepG2.2.15, dot-blot hybridization assay, read-out: Concentration for 50% inhibition of HBV (EC50)value
[2] = HepG2.2.15, summary list of target compounds, Examples 1-165 (same as Table 2), read-out: BIOACTIVITY (inhibitory actions on HBV DNA, EC50)

With `CCOC(=O)C1=C2CNS(=O)(=O)CN2C(c2nccs2)=N[C@H]1c1ccc(F)cc1Br` [Example 135] as the compound, how does the EC50 [1] read?
Its EC50 is 500 to 1000 nM.

And the EC50 (HepG2.2.15, read-out: BIOACTIVITY (inhibitory actions on HBV DNA, EC50), summary list of target compounds, Examples 1-165 (same as Table 2))?
Its EC50 is 500 to 1000 nM.

For `CCOC(=O)C1=C2CN(C)S(=O)(=O)CN2C(c2nccs2)=N[C@H]1c1ccc(F)cc1Br` [Example 136], which EC50 [1] is on record?
The EC50 was 500 to 1000 nM.

And the EC50 [2]?
The EC50 was 500 to 1000 nM.

Which EC50 [1] does the source give for `CCOC(=O)C1=C2C[C@H](C(=O)NS(=O)(=O)C(F)(F)F)CN2C(c2nccs2)=N[C@H]1c1ccc(F)cc1F` [Example 137] here?
Its EC50 is 1000 to 5000 nM.

And the EC50 [2]?
Its EC50 is 1000 to 5000 nM.

Which EC50 [1] does the source give for `CCOC(=O)C1=C2C[C@H](NS(C)(=O)=O)CN2C(c2nccs2)=N[C@H]1c1ccc(F)cc1F` [Example 138] here?
The EC50 was under 100 nM.

What about the EC50 [2] of the same compound?
The EC50 was under 100 nM.

For `CCOC(=O)C1=C2C[C@H](NC(=O)C3COC3)CN2C(c2nccs2)=N[C@H]1c1ccc(F)cc1Cl` [Example 139], which EC50 [1] is on record?
The EC50 was 1000 to 5000 nM.

What about the EC50 [2] of the same compound?
The EC50 was 1000 to 5000 nM.

For `CCOC(=O)C1=C2C[C@H](N[S+]([O-])C(C)(C)C)CN2C(c2nccs2)=N[C@H]1c1ccc(F)cc1Cl` (some centres unmarked) [Example 140], which EC50 [1] is on record?
The EC50 was 500 to 1000 nM.

What about the EC50 [2] of the same compound?
Its EC50 is 500 to 1000 nM.

With `CCOC(=O)C1=C2C[C@H](NS(C)(=O)=O)CN2C(c2nccs2)=N[C@@H]1c1ccc(F)cc1Cl` [Example 141] as the compound, how does the EC50 [1] read?
Its EC50 is 500 to 1000 nM.

What about the EC50 [2] of the same compound?
Its EC50 is 500 to 1000 nM.

Which EC50 [1] does the source give for `CCOC(=O)C1=C2C[C@H](NC(=O)C(F)(F)F)CN2C(c2nccs2)=N[C@H]1c1ccc(F)cc1Cl` [Example 142] here?
Its EC50 is 100 to 500 nM.

And the EC50 [2]?
Its EC50 is 100 to 500 nM.

Which results are given for `CCOC(=O)C1=C2C[C@H](NS(=O)(=O)CC(=O)O)CN2C(c2nccs2)=N[C@H]1c1ccc(F)cc1Cl` [Example 143]?
EC50 [1]: 100 to 500 nM; EC50 [2]: 100 to 500 nM

What does the source list for `CCOC(=O)C1=C2C[C@H](NS(=O)(=O)C3COC3)CN2C(c2nccs2)=N[C@H]1c1ccc(F)cc1Cl` [Example 144]?
EC50 [1]: < 100 nM; EC50 [2]: < 100 nM

Which EC50 [1] does the source give for `CCOC(=O)C1=C2C[C@H](NS(C)(=O)=O)CN2C(c2nccs2)=N[C@H]1c1ccc(F)cc1` [Example 145] here?
Its EC50 is 500 to 1000 nM.

And the EC50 [2]?
Its EC50 is 500 to 1000 nM.

For `CCOC(=O)C1=C2[C@@H](NS(C)(=O)=O)CCN2C(c2nccs2)=N[C@H]1c1ccc(F)cc1Br` [Example 146], which EC50 [1] is on record?
The EC50 was 1000 to 5000 nM.

What about the EC50 [2] of the same compound?
The EC50 was 1000 to 5000 nM.

Which results are given for `CCOC(=O)C1=C2[C@H](NS(C)(=O)=O)CCN2C(c2nccs2)=N[C@H]1c1ccc(F)cc1Br` [Example 147]?
EC50 [1]: 1000 to 5000 nM; EC50 [2]: 1000 to 5000 nM

How did the EC50 [1] turn out when `CCOC(=O)C1=C2C[C@H](NS(C)(=O)=O)CN2C(c2nccs2)=N[C@H]1c1ccc(F)c(F)c1` [Example 148] was run?
Its EC50 is 100 to 500 nM.

What about the EC50 [2] of the same compound?
The EC50 was 100 to 500 nM.

Which EC50 [1] does the source give for `COC(=O)C1=C2C[C@H](NS(C)(=O)=O)CN2C(c2nccs2)=N[C@H]1c1ccc(F)cc1Cl` [Example 149] here?
Its EC50 is under 100 nM.

What about the EC50 [2] of the same compound?
The EC50 was under 100 nM.

Which EC50 [1] does the source give for `CCOC(=O)C1=C2C[C@H](NS(C)(=O)=O)CN2C(c2nccs2)=N[C@H]1c1ccc(Cl)cc1F` [Example 150] here?
Its EC50 is 100 to 500 nM.

What about the EC50 [2] of the same compound?
Its EC50 is 100 to 500 nM.

How did the EC50 [1] turn out when `CCOC(=O)C1=C2C[C@H](NS(C)(=O)=O)CN2C(c2nccs2)=N[C@H]1c1ccc(Cl)cc1Cl` [Example 151] was run?
Its EC50 is under 100 nM.

What about the EC50 [2] of the same compound?
The EC50 was under 100 nM.

Which EC50 [1] does the source give for `CC(C)OC(=O)C1=C2C[C@H](NS(C)(=O)=O)CN2C(c2nccs2)=N[C@H]1c1ccc(F)cc1Cl` [Example 152] here?
Its EC50 is 100 to 500 nM.

What about the EC50 [2] of the same compound?
The EC50 was 100 to 500 nM.

Which EC50 [1] does the source give for `CCOC(=O)C1=C2C[C@H](NS(=O)(=O)C(F)(F)F)CN2C(c2nccs2)=N[C@H]1c1ccc(F)cc1Cl` [Example 153] here?
Its EC50 is under 100 nM.

And the EC50 [2]?
The EC50 was under 100 nM.

How did the EC50 [1] turn out when `CCOC(=O)C1=C2C[C@H](NS(C)(=O)=O)CN2C(c2nncs2)=N[C@H]1c1ccc(F)cc1Cl` [Example 154] was run?
Its EC50 is 100 to 500 nM.

What about the EC50 [2] of the same compound?
The EC50 was 100 to 500 nM.

How did the EC50 [1] turn out when `COC(=O)C1=C2C[C@H](NS(=O)(=O)C(F)(F)F)CN2C(c2nccs2)=N[C@H]1c1ccc(F)cc1Cl` [Example 155] was run?
Its EC50 is under 100 nM.

What about the EC50 [2] of the same compound?
Its EC50 is under 100 nM.

What does the source list for `COC(=O)C1=C2C[C@H](NS(=O)(=O)C3CC3)CN2C(c2nccs2)=N[C@H]1c1ccc(F)cc1Cl` [Example 156]?
EC50 [1]: < 100 nM; EC50 [2]: < 100 nM

What does the source list for `CCOC(=O)C1=C2C[C@H](N(C)S(C)(=O)=O)CN2C(c2nccs2)=N[C@H]1c1ccc(F)cc1Cl` [Example 157]?
EC50 [1]: < 100 nM; EC50 [2]: < 100 nM

Which EC50 [1] does the source give for `CCS(=O)(=O)N[C@H]1CC2=C(C(=O)OC)[C@H](c3ccc(F)cc3Cl)N=C(c3nccs3)N2C1` [Example 158] here?
The EC50 was under 100 nM.

And the EC50 [2]?
Its EC50 is under 100 nM.

With `COC(=O)C1=C2C[C@H](NS(N)(=O)=O)CN2C(c2nccs2)=N[C@H]1c1ccc(F)cc1Cl` [Example 159] as the compound, how does the EC50 [1] read?
The EC50 was under 100 nM.

What about the EC50 [2] of the same compound?
The EC50 was under 100 nM.

How did the EC50 [1] turn out when `CNS(=O)(=O)N[C@H]1CC2=C(C(=O)OC)[C@H](c3ccc(F)cc3Cl)N=C(c3nccs3)N2C1` [Example 160] was run?
The EC50 was under 100 nM.

And the EC50 [2]?
Its EC50 is under 100 nM.

Which EC50 [1] does the source give for `COC(=O)C1=C2C[C@H](NS(=O)(=O)CCO)CN2C(c2nccs2)=N[C@H]1c1ccc(F)cc1Cl` [Example 161] here?
Its EC50 is under 100 nM.

What about the EC50 [2] of the same compound?
Its EC50 is under 100 nM.

Which results are given for `COC(=O)C1=C2C[C@H](NC(C)=O)CN2C(c2nccs2)=N[C@H]1c1ccc(F)cc1Cl` [Example 162]?
EC50 [1]: 100 to 500 nM; EC50 [2]: 100 to 500 nM

For `COC(=O)N[C@H]1CC2=C(C(=O)OC)[C@H](c3ccc(F)cc3Cl)N=C(c3nccs3)N2C1` [Example 163], which EC50 [1] is on record?
The EC50 was under 100 nM.

What about the EC50 [2] of the same compound?
Its EC50 is under 100 nM.

What does the source list for `COC(=O)C1=C2C[C@H](NS(C)(=O)=O)CN2C(c2nccs2)=N[C@H]1c1ccc(F)c(Cl)c1` [Example 164]?
EC50 [1]: 1000 to 5000 nM; EC50 [2]: 1000 to 5000 nM

What does the source list for `COC(=O)C1=C2C[C@H](NS(C)(=O)=O)CN2C(c2nccs2)=N[C@H]1c1cccc(F)c1Cl` [Example 165]?
EC50 [1]: < 100 nM; EC50 [2]: < 100 nM
